From article PMC4390470 (Investigational new drugs, 2015)
Where two headings read alike, the source gives them in different places.

Experiments:
[1] = system: metastatic castration-resistant prostate cancer (mCRPC); settings: cited from earlier work
[2] = in vivo
[3] = human, in vivo, 28 days
[4] = in vivo; remark: listed apart in the source

CC(=O)O[C@H]1CC[C@@]2(C)C(=CC[C@@H]3[C@@H]2CC[C@]2(C)C(c4cccnc4)=CC[C@@H]32)C1 [Abiraterone acetate]
Median OS ([1]; chemotherapy-naïve mCRPC, versus placebo 27.2, ref [16]): not reached | Median OS ([1]; mCRPC following docetaxel therapy, versus placebo 11.2, ref [15]): 15.8 months

CC(=O)O[C@@]12CO[C@@H]1C[C@H](O)[C@@]1(C)C(=O)[C@H](O)C3=C(C)[C@@H](OC(=O)[C@H](O)[C@@H](NC(=O)OC(C)(C)C)c4ccccc4)C[C@@](O)([C@@H](OC(=O)c4ccccc4)[C@H]21)C3(C)C [docetaxel]
Tmax (human, plasma, other: orteronel oral (PO), docetaxel intravenous infusion): ~1 h | Mean plasma concentration-time profile, alone versus in combination (phase 2, orteronel with/without docetaxel and docetaxel with/without orteronel): similar | AUC0-tau and Cmax, alone versus in combination (phase 2, orteronel with/without docetaxel and vice versa): similar

CNC(=O)c1ccc(N2C(=S)N(c3ccc(C#N)c(C(F)(F)F)c3)C(=O)C2(C)C)cc1F [enzalutamide]
Median OS ([1]; chemotherapy-naïve mCRPC, versus placebo 31.0, ref [14]): not reached | Median OS ([1]; mCRPC following docetaxel therapy, versus placebo 13.6, ref [17]): 18.4 months

CNC(=O)c1ccc2cc([C@@]3(O)CCn4cncc43)ccc2c1 [orteronel]
AUC0-tau and Cmax, alone versus in combination [2]: similar | Mean plasma concentration-time profile, alone versus in combination [2]: similar | Recommended phase 2 dose (RP2D) of orteronel in combination with DP [3]: 400 mg BID | Cardiovascular profile [4]: acceptable cardiovascular profile
